# Legend:
# Assay type in all cases: cell-based
# Botrytis cinerea = experiment: Activity against the grey mold Botrytis cinerea in the microtiterplate test; settings: single active compound; for inhibition of growth at 0.25 ppm / inhibition of growth at 1 ppm / inhibition of growth at 4 ppm / inhibition of growth at 16 ppm: Botrytis cinerea, 168 h, read-out: Observed efficacy
# Pyricularia oryzae = experiment: microbe, parasite or virus in culture
# Septoria tritici = experiment: Activity against leaf blotch on wheat caused by Septoria tritici (microtiterplate test); settings: single active; for inhibition of growth at 1 ppm / inhibition of growth at 4 ppm / inhibition of growth at 16 ppm / inhibition of growth at 0.25 ppm / inhibition of growth at 0.063 ppm: Zymoseptoria tritici, 168 h, read-out: Observed efficacy
# Sclerotinia sclerotiorum = experiment: Activity against Sclerotinia sclerotiorum in the microtiterplate test; settings: single active compound
# [1] = Pyricularia oryzae, 168 h, read-out: Observed efficacy
# [2] = Sclerotinia sclerotiorum, 168 h, read-out: Observed efficacy
# [3] = Sclerotinia sclerotiorum, 168 h, 4 ppm, read-out: Observed efficacy
Compound,inhibition of growth at 1 ppm (Botrytis cinerea; 1 ppm) [%],inhibition of growth at 4 ppm (Botrytis cinerea) [%],inhibition of growth at 16 ppm (Botrytis cinerea) [%],inhibition of growth at 0.25 ppm (Pyricularia oryzae; [1]) [%],inhibition of growth at 1 ppm (Pyricularia oryzae; [1]) [%],inhibition of growth at 4 ppm (Pyricularia oryzae; [1]) [%],inhibition of growth at 1 ppm (Septoria tritici; 1 ppm) [%],inhibition of growth at 4 ppm (Septoria tritici) [%],inhibition of growth at 16 ppm (Septoria tritici) [%],inhibition of growth at 1 ppm (Sclerotinia sclerotiorum; [2]) [%],inhibition of growth at 4 ppm (Sclerotinia sclerotiorum; [3]) [%],inhibition of growth at 0.25 ppm (Septoria tritici) [%],other results
Cc1cc(C2=NC(C)(C)C(F)(F)c3ccccc32)cnc1C [Compound 1-1],13,16,19,23,24,53,9,18,37,7,10,,"inhibition of growth at 0.25 ppm (Botrytis cinerea): 13%; inhibition of growth at 0.25 ppm (Sclerotinia sclerotiorum; Sclerotinia sclerotiorum, 168 h, 0.25 ppm, read-out: Observed efficacy): 7%; inhibition of growth at 16 ppm (Sclerotinia sclerotiorum; Sclerotinia sclerotiorum, 168 h, 16 ppm, read-out: Observed efficacy): 32%"
Cc1cc(C2=NC(C)(C)C(F)(F)c3ccccc32)cnc1C(F)F [Compound 1-2],15,19,31,20,32,,6,29,,,16,12,inhibition of growth at 0.063 ppm (Pyricularia oryzae; [1]): 14%
Cc1ncc(C2=NC(C)(C)C(F)(F)c3ccccc32)cc1CF [Compound 1-3],6,9,19,,26,52,9,13,34,3,8,13,inhibition of growth at 0.025 ppm (Pyricularia oryzae; [1]): 20%; inhibition of growth at 0.063 ppm (Septoria tritici): 11%
"N#Cc1sc2c(=O)c3ccccc3c(=O)c=2sc1C#N [Dithianon, dithianon]",,,,36,,,,,,36,,82,inhibition of growth at 0.25 ppm (Botrytis cinerea): 4%; inhibition of growth at 0.063 ppm (Pyricularia oryzae; [1]): 14%; inhibition of growth at 0.063 ppm (Septoria tritici): 22%
"CC(C)O/N=C(/CNC(=O)c1cn(C)nc1C(F)F)c1ncc(C#CC2CC2)cc1Cl [Pyrapropyon, pyrapropoyne]",,35,71,,,1,42,,,,55,,inhibition of growth at 16 ppm (Pyricularia oryzae; [1]): 4%
"Cc1cc(C)nc(Nc2ccccc2)n1 [Pyrimethanil, pyrimethanil]",50,72,,,,,6,,21,15,21,,
"CC1(C)N=C(c2cnc3ccccc3c2)c2ccccc2C1(F)F [Quinofumelin, quinofumelin]",,,,,,,,,,,,,"Observed efficacy (Botrytis cinerea; 1 ppm): 30%; Observed efficacy (Pyricularia oryzae; single active compound, 1 ppm): 34%; Observed efficacy (Septoria tritici; 1 ppm): 41%; Observed efficacy (Sclerotinia sclerotiorum; 4 ppm): 65%"
